# Results published in article PMC4747835 (Journal of controlled release : official journal of the …, 2015).
# Where two headings read alike, the source gives them in different places.
# Experiments:
# in vivo = details: male, Sprague-Dawley, rat, 100 ug/kg
# [1] = rat, in vivo
# [2] = in vivo; cited from earlier work
smiles,measurement,setting,value
"CSCC[C@@H]1NC(=O)[C@H](CC(C)C)NC(=O)[C@H](CCCNC(=N)N)NC(=O)[C@H](CO)NC(=O)[C@@H]2CSSC[C@@H]3NC(=O)[C@H](CO)NC(=O)CNC(=O)[C@H]([C@@H](C)O)NC(=O)[C@H](CSSC[C@H](N)C(=O)N[C@@H](CCCCN)C(=O)NCC(=O)N[C@@H](CCCCN)C(=O)NCC(=O)N[C@@H](C)C(=O)N[C@@H](CCCCN)C(=O)N2)NC(=O)[C@H](CSSC[C@@H](C(N)=O)NC(=O)[C@H](CCCCN)NC(=O)CNC(=O)[C@H](CO)NC(=O)[C@H](CCCNC(=N)N)NC3=O)NC(=O)[C@H](CC(=O)O)NC(=O)[C@H](Cc2ccc(O)cc2)NC1=O [ziconotide, Ziconotide]",level at 0.25 h,in vivo,992 ± 76.4 ng/mL
same,AUC0-6 in CSF,[1],1.57 ± 0.44 µg·min/mL
same,Cmax in CSF,[1],33.55 ± 7.39 ng/mL
same,Tmax in CSF,[1],0.25 h
same,"bioavailability (AUC0-6) in CSF, fold less than i.v administration",[1],~ 3 fold
same,elimination rate constant in CSF,[1],1.01 ± 0.34 h⁻¹
same,AUC0-6 in CSF,[1]; iv,4.98 ± 0.98 µg·min/mL
same,Cmax in CSF,[1]; iv,37.78 ± 6.8 ng/mL
same,Tmax in CSF,[1]; iv,2 h
same,occurrence of meningitis,[2],3%
